According to patent publication US9676760B2, “Fused heterocyclic compounds as ion channel modulators” (Gilead Sciences, Inc., priority 2011, dated 2017):

Assays:
[1] = target: T1, wild-type human cardiac sodium channel, hNav1.5 (Homo sapiens, UniProt Q14524); test: Late INa screening assay (QPatch whole cell patch clamp, HEK293); format: cell-based
Outline: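 HEK293 stably expressing hNav1.5 without beta subunits, recorded at 23-25° C. Late current was induced by 10 μM tefluthrin. Cells were depolarized from −120 mV to −20 mV for 250 ms at 0.1 Hz. Compounds were tested at 1 μM in extracellular solution, with baseline taken in 0Na-ECF; output is percent block of late INa.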

[2] = target: T1, wild-type human cardiac sodium channel, hNav1.5; test: Peak INa screening assay (tonic and use-dependent block); format: cell-based; conditions: compound at 1 μM
Outline: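 Whole-cell automated patch clamp (QPatch) at 23–25°C on HEK293 cells stably expressing hNav1.5 alpha subunit only, with CsF/CsCl pipette solution, pH 7.4. Compound at 1 μM in extracellular solution; bath Na+ could be cut to 20 mM with a nonpermeant cation. Tonic block measured at 0.1 Hz, use-dependent block at 3 Hz.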

[3] = target: hERG potassium channel (Homo sapiens, UniProt Q12809); test: hERG screening assay (PatchXpress, CHO cells); format: cell-based; parameters: hERG: unit not given here
Chain of hERG potassium channel (Q12809 whole entry): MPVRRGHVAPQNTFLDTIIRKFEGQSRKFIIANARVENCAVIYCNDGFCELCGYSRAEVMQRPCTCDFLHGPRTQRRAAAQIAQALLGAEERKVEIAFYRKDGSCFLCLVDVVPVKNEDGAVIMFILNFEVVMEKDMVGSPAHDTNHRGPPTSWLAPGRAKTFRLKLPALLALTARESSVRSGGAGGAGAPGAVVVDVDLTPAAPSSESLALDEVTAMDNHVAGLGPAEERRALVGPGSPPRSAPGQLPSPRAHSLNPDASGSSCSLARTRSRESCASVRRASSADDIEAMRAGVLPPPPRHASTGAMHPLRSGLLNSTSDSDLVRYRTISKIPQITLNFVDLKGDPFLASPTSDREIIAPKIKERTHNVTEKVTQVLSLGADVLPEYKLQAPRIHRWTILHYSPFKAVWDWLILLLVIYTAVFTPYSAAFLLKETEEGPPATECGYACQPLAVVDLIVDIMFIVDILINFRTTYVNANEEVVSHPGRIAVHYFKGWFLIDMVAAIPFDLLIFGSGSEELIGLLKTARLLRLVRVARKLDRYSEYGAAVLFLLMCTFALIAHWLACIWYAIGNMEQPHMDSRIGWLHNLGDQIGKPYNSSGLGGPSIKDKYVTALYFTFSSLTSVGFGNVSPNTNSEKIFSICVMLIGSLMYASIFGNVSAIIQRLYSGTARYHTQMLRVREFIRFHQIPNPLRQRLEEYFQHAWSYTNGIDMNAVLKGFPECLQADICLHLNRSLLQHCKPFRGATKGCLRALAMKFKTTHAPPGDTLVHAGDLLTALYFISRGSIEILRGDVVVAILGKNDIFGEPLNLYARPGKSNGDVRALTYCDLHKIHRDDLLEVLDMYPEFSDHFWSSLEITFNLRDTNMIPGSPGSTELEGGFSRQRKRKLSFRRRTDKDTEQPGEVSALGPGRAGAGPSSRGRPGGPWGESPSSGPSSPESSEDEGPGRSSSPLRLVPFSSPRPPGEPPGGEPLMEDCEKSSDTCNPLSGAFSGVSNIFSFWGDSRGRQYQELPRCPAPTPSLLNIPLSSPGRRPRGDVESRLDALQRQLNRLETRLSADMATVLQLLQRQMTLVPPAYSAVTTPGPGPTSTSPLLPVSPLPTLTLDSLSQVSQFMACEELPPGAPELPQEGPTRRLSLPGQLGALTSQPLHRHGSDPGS
Experimental: Compounds were also tested for their effect to block the hERG K^+ channel.
Compounds were screened to test their activity in blocking the hERG potassium channel at AVIVA Biosciences (San Deigo, Calif., USA). The hERG channel is heterologously expressed in a CHO (Chinese Hamster Ovary) cell line. Cells were maintained with standard tissue culture procedures and stable channel expression was maintained with 500 μg/mL G418 in the culture medium. Cells were harvested for testing on the PatchXpress 7000A automated patch clamp with Accumax (Innovative Cell Technologies, San Diego, Calif.) to isolate single cells.
The following solutions were used for electrophysiological recordings. The external solution contained: 2 mM CaCl2; 2 mM MgCl2; 4 mM KCl; 150 mM NaCl; 10 mM Glucose; 10 mM HEPES (pH 7.4 with 1M NaOH; osmolarity, ˜310 mOsm).
hERG channels were activated when the voltage was first stepped to −50 mV for 300 ms from the −80 mV holding potential and then stepped to +20 mV for 5 seconds. At +20 mV the channels open and then largely inactivate, so the currents are relatively small. Upon returning to −50 mV from +20 mV, hERG currents transiently become much larger as inactivation is rapidly removed and then the channel closes. The first step to −50 mV for 300 ms was used as a baseline for measuring the peak amplitude during the step to −50 mV after channel activation. The peak tail current at −50 mV was measured both under control conditions and after addition of compound, each cell serving as its own control.
All compounds were prepared as 10 mM DMSO stocks in glass vials. Stock solutions were mixed by vigorous vortexing and sonication for about 2 minutes at room temperature. For testing, compounds were diluted in glass vials using an intermediate dilution step in pure DMSO and then further diluted to working concentrations in external solution. Dilutions were prepared no longer than 20 minutes before use.
For the electrophysiological recordings, after achieving the whole-cell configuration, cells were monitored for 90 seconds to assess stability and washed with external solution for 66 seconds. The voltage protocol described above was then applied to the cells every 12 seconds and throughout the whole procedure. Only cells with stable recording parameters and meeting specified health criteria were allowed to enter the compound addition procedure.
External solution containing 0.1% DMSO (vehicle) was applied to the cells first to establish the control peak current amplitude. After allowing the current to stabilize for 3 to 5 minutes, 1 μM and then 10 μM test compounds were applied. Each compound concentration was added 4 times and cells were kept in test solution until the effect of the compound reached steady state or for a maximum of 12 minutes. […] Washout in the external solution compartment was performed until the recovery of the current reached steady state.

[4] = test system: Female New Zealand rabbits; test: Ischemia-induced ST segment elevation in anesthetized rabbits; format: in vivo, rabbit
Experimental: This study was undertaken to determine the anti-ischemic effects of compounds of the present disclosure in an in vivo rabbit model.
Female New Zealand rabbits (3.0-4.0 kg) were purchased from Western Oregon Rabbitry. Animals were housed on a 12-h light and dark cycle and received standard laboratory chow and water. All experiments were performed in accordance with the Guide for the Care and Use of Laboratory Animals published by The National Research Council and with the experimental protocol approved by the Institutional Animal Care Committee of Gilead Sciences, Inc.
Rabbits were anesthetized with ketamine (35 mg/kg) and xylazine (5 mg/kg) intramuscular injection (im). A tracheotomy was performed and the trachea was intubated with an endotracheal tube. The animal was ventilated with room air supplemented with oxygen using a pressure control animal ventilator (Kent Scientific Corp., Torrington, Conn.) at a respiratory rate of 40 strokes/min and peak inspiration pressure of 10 mmH2O, which was adjusted to keep blood gases and pH within the physiological range (iSTAT clinic analyzer, Heska Corp.; Waukesha, Wis.). The left femoral artery was cannulated for the measurement of blood pressure (BP). Blood samples were also withdrawn from femoral artery. The right external jugular vein was cannulated for drug/vehicle administration. Needle electrodes were inserted subcutaneously into the limbs for recording of the surface electrocardiogram (ECG). The heart was exposed via an incision in the 4th intercostal space (4th and/or 5th ribs were cut for a clear surgical vision). The chest was opened and a pericardial cradle was formed using 4 retractors. A coronary artery occluder, comprised of a snare made of 5 cm PE-10 tubing with a 6-0 Prolene polypropylene suture in it, was placed loosely around the left anterior descending artery (LAD) at its origin. Two unipolar electrodes, made with teflon coated silver wire attached to a small patch of filter paper, were attached on the surface of the ischemic and normal regions of the left ventricle to record epicardial electrocardiogram. Reference electrodes were placed in the open incision of the neck. The body temperature of the animal was monitored via a rectal thermometer and maintained at 37-40° C. by adjusting the surface temperature of the surgical table. Regional ischemia (15 min) was induced by ligating the LAD followed by 15 min of reperfusion caused by releasing the ligation. The heart was excised at the end of the experiment and the LAD was re-ligated. The ischemic area was visualized by perfusing the heart with 1% Evans blue in saline and calculated as a percentage of total ventricular weight. Rabbits with ischemic area less than 10% or larger than 25% were excluded from the analysis. Animals were randomly assigned to vehicle and test compound groups. Test compounds was dissolved in 5% NMP, 30% PG, 45% PEG 400 and 20% de-ionized water (dH2O). Test compound was given as an iv bolus at 0.1, 0.2 and 0.4 mg/kg. After 30 min of dosing, the heart was subjected to 15 min of ischemia followed by 15 min of reperfusion.

[5] = target: T2, hNav 1.1 sodium channel isoform (Homo sapiens, UniProt P35498); test: hNav1.1 whole-cell voltage-clamp assay; format: cell-based; conditions: % Inhibition at 1 uM; use-dependent block, 10 Hz; read-out: NAV1.1* UDB-10HZ
T2 construct: expressed in transfected cells; host or cells: HEK293, transient transfection (Qiagen Superfect)

[6] = target: T3, hNav 1.2 sodium channel isoform (Homo sapiens, UniProt Q99250); test: hNav1.2 whole-cell voltage-clamp assay; format: cell-based; conditions: use-dependent block, 10 Hz, read-out: NAV1.2* UDB-10HZ
T3 construct: expressed in transfected cells
T3 sequence (Q99250 whole entry, canonical isoform): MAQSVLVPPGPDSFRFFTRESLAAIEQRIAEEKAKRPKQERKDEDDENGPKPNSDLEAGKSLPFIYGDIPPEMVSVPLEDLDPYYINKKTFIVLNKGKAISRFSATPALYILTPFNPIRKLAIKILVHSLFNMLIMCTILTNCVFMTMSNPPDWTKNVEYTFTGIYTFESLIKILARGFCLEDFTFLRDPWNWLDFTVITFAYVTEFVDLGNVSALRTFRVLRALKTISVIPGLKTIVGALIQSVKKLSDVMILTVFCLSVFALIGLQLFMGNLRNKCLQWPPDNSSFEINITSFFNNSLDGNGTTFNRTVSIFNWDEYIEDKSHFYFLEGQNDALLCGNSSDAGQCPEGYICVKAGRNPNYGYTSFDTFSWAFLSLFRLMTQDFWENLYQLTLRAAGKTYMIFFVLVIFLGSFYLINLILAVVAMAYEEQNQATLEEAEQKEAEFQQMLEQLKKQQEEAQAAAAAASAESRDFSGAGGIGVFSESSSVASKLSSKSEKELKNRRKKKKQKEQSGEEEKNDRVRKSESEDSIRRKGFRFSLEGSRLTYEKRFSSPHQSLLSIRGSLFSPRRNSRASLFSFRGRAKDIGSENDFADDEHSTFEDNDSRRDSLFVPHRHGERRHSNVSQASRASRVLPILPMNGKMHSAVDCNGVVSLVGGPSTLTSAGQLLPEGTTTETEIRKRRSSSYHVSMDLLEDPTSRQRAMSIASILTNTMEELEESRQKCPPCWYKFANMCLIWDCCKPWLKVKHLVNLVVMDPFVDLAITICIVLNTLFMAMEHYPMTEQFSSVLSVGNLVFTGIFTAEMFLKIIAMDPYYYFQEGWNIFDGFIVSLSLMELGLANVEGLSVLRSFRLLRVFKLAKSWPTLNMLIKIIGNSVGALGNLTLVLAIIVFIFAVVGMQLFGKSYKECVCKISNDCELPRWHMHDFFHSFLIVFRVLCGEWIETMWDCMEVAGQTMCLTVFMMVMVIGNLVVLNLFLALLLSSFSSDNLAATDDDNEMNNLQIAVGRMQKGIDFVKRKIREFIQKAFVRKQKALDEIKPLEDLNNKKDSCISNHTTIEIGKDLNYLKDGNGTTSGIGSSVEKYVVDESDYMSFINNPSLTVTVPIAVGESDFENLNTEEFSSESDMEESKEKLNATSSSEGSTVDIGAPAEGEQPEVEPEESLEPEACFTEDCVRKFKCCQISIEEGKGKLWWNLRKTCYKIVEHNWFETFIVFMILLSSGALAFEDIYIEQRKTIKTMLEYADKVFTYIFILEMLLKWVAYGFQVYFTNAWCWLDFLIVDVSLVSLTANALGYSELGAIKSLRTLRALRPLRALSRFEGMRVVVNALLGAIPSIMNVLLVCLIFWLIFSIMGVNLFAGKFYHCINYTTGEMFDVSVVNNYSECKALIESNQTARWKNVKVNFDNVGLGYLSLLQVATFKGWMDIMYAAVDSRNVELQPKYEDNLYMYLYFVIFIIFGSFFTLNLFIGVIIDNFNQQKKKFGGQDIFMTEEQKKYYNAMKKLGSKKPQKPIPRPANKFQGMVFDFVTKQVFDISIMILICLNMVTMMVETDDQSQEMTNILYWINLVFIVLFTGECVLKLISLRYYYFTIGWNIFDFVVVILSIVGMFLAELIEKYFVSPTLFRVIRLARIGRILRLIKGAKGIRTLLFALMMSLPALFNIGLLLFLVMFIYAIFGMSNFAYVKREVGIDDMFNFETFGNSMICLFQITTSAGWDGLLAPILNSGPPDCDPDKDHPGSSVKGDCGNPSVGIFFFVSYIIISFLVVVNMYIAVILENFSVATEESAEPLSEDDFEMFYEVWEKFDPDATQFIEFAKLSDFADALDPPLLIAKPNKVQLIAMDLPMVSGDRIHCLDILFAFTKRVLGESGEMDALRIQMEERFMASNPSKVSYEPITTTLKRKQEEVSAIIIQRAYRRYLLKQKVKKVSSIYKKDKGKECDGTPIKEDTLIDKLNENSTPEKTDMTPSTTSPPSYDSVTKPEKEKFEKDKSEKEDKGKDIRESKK
Experimental: Wild-type (WT) cDNA stably transfected in Chinese hamster ovary (CHO) cells is used to record INa. Unless otherwise noted, all reagents are purchased from Sigma-Aldrich (St Louis, Mo., U.S.A.).
Whole-cell voltage-clamp recordings are used to measure the biophysical properties of WT. […] Cells are allowed to stabilize for 10 min after establishment of the whole-cell configuration before current is measured. Series resistance is compensated 90% to assure that the command potential is reached within microseconds with a voltage error<2 mV. Leak currents are subtracted by using an online P/4 procedure and all currents are low-pass Bessel filtered at 5 kHz and digitized at 50 kHz.
For clarity, representative ramp currents are low pass filtered off-line at 50 Hz. Specific voltage-clamp protocols assessing channel activation, fast inactivation and availability during repetitive stimulation are used. Results are presented as mean±SEM.
Tonic block of peak current is measured using a step to −10 mV (20 ms) from a holding potential of −120 mV (0.2 Hz). Use-dependent block of peak current is measured during pulse number 300 of a pulse train (−10 mV, 5 ms, 300 pulses, 10 Hz or 25 Hz) from a holding potential of −120 mV. Two sequential pulse train stimulations are averaged to obtain mean current traces for each recording condition, which are then used for offline subtraction and analysis.
For use-dependent studies, cells are stimulated with depolarizing pulse trains (−10 mV, 5 ms, 300 pulses, 10 and 25 Hz) from a holding potential of −120 mV. Currents are then normalized to the peak current recorded in response to the first pulse in each frequency train. For tonic block studies, peak current is evaluated in response to a 20 ms depolarization to −10 mV (0.2 Hz). […] Results are presented as mean±SEM.
A stock solution of 10 mM compound of Formula I is prepared in 0.1 M HCl or DMSO. […] The final DMSO concentration was kept at 0.1% in all solutions. Direct application of the perfusion solution to the clamped cell is achieved using the Perfusion Pencil system (Automate, Berkeley, Calif.). Direct cell perfusion is driven by gravity at a flow rate of 350 μL/min using a 250 micron tip. This system sequesters the clamped cell within a perfusion stream and enables complete solution exchange within 1 second. The clamped cell is perfused continuously starting immediately after establishing the whole-cell configuration. Control currents are measured during control solution perfusion.
Solutions are perfused for three minutes prior to current recordings to allow equilibrium (tonic) drug block. Tonic block of peak currents is measured from this steady-state condition. Three sequential current traces are averaged to obtain a mean current for each recording. The mean current traces are utilized for offline analysis. Use-dependent block of peak current is measured during pulse number 300 of the pulse train, (−10 mV, 5 ms, 300 pulses, 10 Hz) from a holding potential of −120 mV.

[7] = HEK293, % Inhibition at 1 uM, read-out: Late INa*
[8] = HEK293, percent block of late INa, compound at 1 μM, 10 μM Tefluthrin, read-out: Late INa 1 μM
[9] = tonic block of peak INa, 0.1 Hz, read-out: Peak TB 1 μM
[10] = use-dependent block of peak INa, 3 Hz, read-out: Peak UDB 1 μM

T1 sequence (Q14524 whole entry): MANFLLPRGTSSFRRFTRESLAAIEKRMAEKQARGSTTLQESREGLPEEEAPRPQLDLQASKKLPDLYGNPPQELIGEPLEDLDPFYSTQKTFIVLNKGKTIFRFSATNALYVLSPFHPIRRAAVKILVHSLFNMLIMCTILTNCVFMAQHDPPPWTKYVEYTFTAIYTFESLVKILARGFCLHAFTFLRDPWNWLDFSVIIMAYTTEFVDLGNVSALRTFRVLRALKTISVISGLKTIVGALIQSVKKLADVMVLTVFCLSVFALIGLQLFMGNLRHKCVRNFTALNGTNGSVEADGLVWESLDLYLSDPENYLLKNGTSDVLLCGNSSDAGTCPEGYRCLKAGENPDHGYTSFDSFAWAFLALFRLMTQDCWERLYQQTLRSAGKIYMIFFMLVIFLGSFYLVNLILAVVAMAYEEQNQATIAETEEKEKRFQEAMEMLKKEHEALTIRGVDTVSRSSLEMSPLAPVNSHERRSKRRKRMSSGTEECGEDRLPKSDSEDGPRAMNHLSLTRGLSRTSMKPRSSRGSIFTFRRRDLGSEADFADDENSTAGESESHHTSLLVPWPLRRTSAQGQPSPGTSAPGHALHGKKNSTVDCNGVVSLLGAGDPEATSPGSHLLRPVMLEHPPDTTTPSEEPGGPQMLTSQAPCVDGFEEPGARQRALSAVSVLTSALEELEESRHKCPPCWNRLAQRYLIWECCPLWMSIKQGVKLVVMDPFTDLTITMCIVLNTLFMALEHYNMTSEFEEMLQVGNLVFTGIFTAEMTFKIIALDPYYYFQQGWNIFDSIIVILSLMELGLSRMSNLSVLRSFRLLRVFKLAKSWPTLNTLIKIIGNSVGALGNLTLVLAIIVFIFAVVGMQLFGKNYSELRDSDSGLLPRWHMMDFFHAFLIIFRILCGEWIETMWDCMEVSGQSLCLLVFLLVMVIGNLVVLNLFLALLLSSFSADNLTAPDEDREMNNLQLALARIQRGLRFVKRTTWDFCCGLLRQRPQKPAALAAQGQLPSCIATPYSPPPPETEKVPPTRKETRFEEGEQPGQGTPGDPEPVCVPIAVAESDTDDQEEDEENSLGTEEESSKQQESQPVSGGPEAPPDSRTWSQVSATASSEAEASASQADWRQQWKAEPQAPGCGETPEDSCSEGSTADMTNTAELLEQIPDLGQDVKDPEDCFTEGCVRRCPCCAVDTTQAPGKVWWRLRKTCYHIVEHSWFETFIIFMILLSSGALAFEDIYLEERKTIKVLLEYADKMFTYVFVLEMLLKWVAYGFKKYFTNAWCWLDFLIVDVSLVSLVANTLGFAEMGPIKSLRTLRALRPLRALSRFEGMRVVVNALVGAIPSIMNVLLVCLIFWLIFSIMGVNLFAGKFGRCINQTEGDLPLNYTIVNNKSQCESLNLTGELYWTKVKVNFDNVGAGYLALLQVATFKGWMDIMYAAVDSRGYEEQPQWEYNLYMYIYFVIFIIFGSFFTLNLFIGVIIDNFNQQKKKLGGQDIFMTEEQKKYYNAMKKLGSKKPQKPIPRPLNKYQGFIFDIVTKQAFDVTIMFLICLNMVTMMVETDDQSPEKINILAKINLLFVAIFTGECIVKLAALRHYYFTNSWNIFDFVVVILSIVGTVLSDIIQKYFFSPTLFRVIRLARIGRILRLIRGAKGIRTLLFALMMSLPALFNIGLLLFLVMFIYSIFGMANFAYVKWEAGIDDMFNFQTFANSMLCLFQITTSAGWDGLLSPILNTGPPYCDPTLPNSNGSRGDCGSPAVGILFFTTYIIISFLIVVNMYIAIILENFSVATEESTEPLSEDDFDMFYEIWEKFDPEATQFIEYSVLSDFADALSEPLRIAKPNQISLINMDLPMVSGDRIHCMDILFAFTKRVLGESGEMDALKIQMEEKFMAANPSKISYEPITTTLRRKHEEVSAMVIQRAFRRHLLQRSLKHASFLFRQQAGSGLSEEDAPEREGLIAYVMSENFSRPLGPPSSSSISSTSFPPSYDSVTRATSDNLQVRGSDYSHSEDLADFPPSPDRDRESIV

SMILES	inhibition at 1 µM [1, 7]	inhibition at 1 µM [1, 8]	inhibition at 1 µM [2, 9]	inhibition at 1 µM [2, 10]	hERG [3]	area under curve (AUC) for the ST segment height reduced (vs. control) ([4]; 0.28 μM plasma concentration, iv bolus, 15 min ischemia)	effect on blood pressure (BP), heart rate (HR) and ECG intervals prior to the ischemia ([4]; at the plasma concentration levels studied)	ischemia-induced ST elevation ([4]; iv bolus 30 min before 15 min ischemia)	inhibition at 1 µM [5]	inhibition at 1 µM [6]
Cc1cccc(CN2CCOc3ccc(-c4ccc(OC(F)(F)F)cc4)cc3C2=O)n1 [II-17, 4-((6-methylpyridin-2-yl)methyl)-7-(4-(trifluoromethoxy)phenyl)-3,4-dihydrobenzo[f][1,4]oxazepin-5(2H)-one]	59%	59%	47%	46%	<10	–	–	–	–	–
O=C1c2cc(-c3ccc(C(F)(F)F)cc3)ccc2OCCN1Cc1ncccn1 [II-61, 4-(pyrimidin-2-ylmethyl)-7-(4-(trifluoromethyl)phenyl)-3,4-dihydrobenzo[f][1,4]oxazepin-5(2H)-one]	–	–	–	–	<10	38%	no significant effect	dose-dependently prevented	–	–
Cc1ccnc(CN2CCOc3ccc(-c4ccc(OC(F)(F)F)cc4)cc3C2=O)n1 [II-138, 4-((4-methylpyrimidin-2-yl)methyl)-7-(4-(trifluoromethoxy)phenyl)-3,4-dihydrobenzo[f][1,4]oxazepin-5(2H)-one]	47%	47%	16%	23%	–	–	–	–	21%	40%
O=C1c2cc(-c3ccc(OC(F)(F)F)cc3)ncc2OCCN1Cc1ccccc1 [XII-1, 4-benzyl-7-(4-(trifluoromethoxy)phenyl)-3,4-dihydropyrido[4,3-f][1,4]oxazepin-5(2H)-one]	53%	53%	25%	21%	–	–	–	–	-1%	-4%
